Results taken from PMC6934871, “High resolution structural and functional analysis of a hemopexin motif protein from Dolichos” (Scientific Reports, 2019).

Molecular target: DC25
Test: SPR (Biacore T200, DC25 immobilized on CM5, […] Langmuir fit); also inhibits peroxidase activity of purified DC25
Assay type: binding, Lablab purpureus

- Kd: 1.21 µM
SMILES: O=S(=O)(O)c1ccc(-c2c3nc(c(-c4ccc(S(=O)(=O)O)cc4)c4ccc([nH]4)c(-c4ccc(S(=O)(=O)O)cc4)c4nc(c(-c5ccc(S(=O)(=O)O)cc5)c5ccc2[nH]5)C=C4)C=C3)cc1 [TPPS4]
